Measurements: PubChem BioAssay AID248 (DTP/NCI, 2004)
“And” between values parts separate entries of the source, which are not always exact repeats. Equal entries are not always repeated. Toxic doses and inconclusive results are not listed. Square brackets hold non-standard residues; d marks the D form. Peptide text beside a SMILES is read from it. * marks the point of attachment. ξ: configuration not given here. Cbz = O=C(OCc1ccccc1)*; ξV = CC(C)C(N)C(=O)O; OBn = c1ccc(CO*)cc1

Tested on: L1210 leukemia ip in BDF1 mice, survival T/C
Assay: NCI In Vivo Anticancer Drug Screen. Data for tumor model L1210 Leukemia (intraperitoneal) in B6D2F1 (BDF1) mice
Settings: endpoint: mean survival time, higher = longer survival
Outline: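 Ratio derived from survival: compound-dosed mice over vehicle-dosed mice, all bearing a transplantable tumor.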

[1] = dose: 200.0 mg/kg/injection, schedule: Q04DX003 (ip), vehicle: saline with Tween-80
[2] = dose: 400.0 mg/kg/injection, schedule: Q04DX003 (ip), vehicle: saline with Tween-80
[3] = dose: 100.0 mg/kg/injection, schedule: Q01DX001 (ip), vehicle: saline with Tween-80
[4] = dose: 200.0 mg/kg/injection, schedule: Q01DX001 (ip), vehicle: saline with Tween-80
[5] = dose: 400.0 mg/kg/injection, schedule: Q01DX001 (ip), vehicle: saline with Tween-80
[6] = dose: 100.0 mg/kg/injection, schedule: Q04DX003 (ip), vehicle: saline
[7] = dose: 200.0 mg/kg/injection, schedule: Q04DX003 (ip), vehicle: saline
[8] = dose: 400.0 mg/kg/injection, schedule: Q04DX003 (ip), vehicle: saline
[9] = dose: 100.0 mg/kg/injection, schedule: Q04DX002 (ip), vehicle: Klucel (hydroxypropylcellulose) (HPC)
[10] = dose: 200.0 mg/kg/injection, schedule: Q04DX002 (ip), vehicle: Klucel (hydroxypropylcellulose) (HPC)
[11] = dose: 400.0 mg/kg/injection, schedule: Q04DX002 (ip), vehicle: Klucel (hydroxypropylcellulose) (HPC)
[12] = dose: 100.0 mg/kg/injection, schedule: Q04DX003 (ip), vehicle: Klucel (hydroxypropylcellulose) (HPC)
[13] = dose: 200.0 mg/kg/injection, schedule: Q04DX003 (ip), vehicle: Klucel (hydroxypropylcellulose) (HPC)
[14] = dose: 400.0 mg/kg/injection, schedule: Q04DX003 (ip), vehicle: Klucel (hydroxypropylcellulose) (HPC)
[15] = dose: 100.0 mg/kg/injection, schedule: Q01DX001 (ip), vehicle: saline
[16] = dose: 200.0 mg/kg/injection, schedule: Q01DX001 (ip), vehicle: saline
[17] = dose: 400.0 mg/kg/injection, schedule: Q01DX001 (ip), vehicle: saline
[18] = dose: 50.0 mg/kg/injection, schedule: Q01DX001 (ip), vehicle: saline
[19] = dose: 100.0 mg/kg/injection, schedule: Q01DX009 (ip), vehicle: saline with Tween-80
[20] = dose: 200.0 mg/kg/injection, schedule: Q01DX009 (ip), vehicle: saline with Tween-80

`C=C1C(=O)OC2CC(C)C3C4OC4C(O)C3(C)C(O)C12` (stereo not given) was tested, and the T/C (dose: 9.38 mg/kg/injection, schedule: Q01DX009 (ip), vehicle: saline with Tween-80) was 104 % of control, the T/C (dose: 18.75 mg/kg/injection, schedule: Q01DX009 (ip), vehicle: saline with Tween-80) was 106 % of control and the T/C (dose: 37.5 mg/kg/injection, schedule: Q01DX009 (ip), vehicle: saline with Tween-80) was 102 % of control.
`CC(C)(C)NC(=O)C1C2CC3OC(=O)C1C3C2` (stereo not given) was tested, and the T/C (dose: 100.0 mg/kg/injection, schedule: Q04DX003 (ip), vehicle: saline with Tween-80) was 98 % of control, the T/C [1] was 101 % of control and 90 % of control and the T/C [2] was 101 % of control and 98 % of control.
`CCN(C)C(=O)Nc1ccc(N)cc1` was tested, and the T/C (dose: 100.0 mg/kg/injection, schedule: Q04DX002 (ip), vehicle: saline) was 101 % of control, the T/C (dose: 200.0 mg/kg/injection, schedule: Q04DX002 (ip), vehicle: saline) was 104 % of control and the T/C (dose: 400.0 mg/kg/injection, schedule: Q04DX002 (ip), vehicle: saline) was 108 % of control.
For `CCCCCCCc1nc2nn[nH]c(=O)c2[nH]1`, the T/C [3] was 94 % of control, the T/C [4] was 100 % of control and the T/C [5] was 90 % of control.
For `O=c1[nH]c(=O)c2nc3cc(Br)cnc3nc2[nH]1`, the T/C [6] was 95 % of control, the T/C [7] was 102 % of control and the T/C [8] was 103 % of control.
In the case of `O=C1NC(=S)S/C1=C/c1ccco1`, the T/C [9] was 105 % of control, the T/C [10] was 98 % of control and the T/C [11] was 105 % of control.
With `CCOC(=O)C(C)C1CCCc2c(C)ccc(C)c21` (stereo not given) the T/C (dose: 100.0 mg/kg/injection, schedule: Q01DX009 (ip), vehicle: Klucel (hydroxypropylcellulose) (HPC)) was 100 % of control, the T/C [12] was 98 % of control and the T/C (dose: 200.0 mg/kg/injection, schedule: Q01DX009 (ip), vehicle: Klucel (hydroxypropylcellulose) (HPC)) was 102 % of control. For the same compound, the T/C [13] was 92 % of control, the T/C (dose: 400.0 mg/kg/injection, schedule: Q01DX009 (ip), vehicle: Klucel (hydroxypropylcellulose) (HPC)) was 93 % of control and the T/C [14] was 98 % of control.
With `C[N+](C)(C)CCP(=O)([O-])O` the T/C (dose: 100.0 mg/kg/injection, schedule: Q01DX009 (ip), vehicle: saline) was 101 % of control, the T/C (dose: 200.0 mg/kg/injection, schedule: Q01DX009 (ip), vehicle: saline) was 93 % of control and the T/C (dose: 400.0 mg/kg/injection, schedule: Q01DX009 (ip), vehicle: saline) was 95 % of control.
In the case of `Cc1c(CCO)c(=O)n2n1CCCC2`, the T/C (dose: 75.0 mg/kg/injection, schedule: Q01DX001 (ip), vehicle: other) was 108 % of control and the T/C (dose: 150.0 mg/kg/injection, schedule: Q01DX001 (ip), vehicle: other) was 100 % of control.
For `CC(C)C12CCC(C)(O1)C(O)C2O` (stereo not given), the T/C [15] was 111 % of control, the T/C [16] was 104 % of control and the T/C [17] was 106 % of control.
With `CN(C)N=Nc1ccc2ncccc2c1[N+](=O)[O-]` the T/C (dose: 100.0 mg/kg/injection, schedule: Q01DX001 (ip), vehicle: other) was 105 % of control and the T/C (dose: 200.0 mg/kg/injection, schedule: Q01DX001 (ip), vehicle: other) was 103 % of control.
`[Cl][Pt+2][Cl].[NH-]c1ccc(Cl)cc1[NH-]` was tested, and the T/C (dose: 12.5 mg/kg/injection, schedule: Q04DX003 (ip), vehicle: saline) was 178 % of control, the T/C (dose: 25.0 mg/kg/injection, schedule: Q04DX003 (ip), vehicle: saline) was 113 % of control and the T/C [6] was 105 % of control and 108 % of control. For the same compound, the T/C (dose: 800.0 mg/kg/injection, schedule: Q04DX003 (ip), vehicle: saline) was 103 % of control.
For `CCN(CC)CCNc1ccccc1Cl`, the T/C [15] was 101 % of control and the T/C [16] was 101 % of control.
With `CC(=O)Nc1ccc2c(=O)cc[nH]c2n1` the T/C [18] was 89 % of control, the T/C [15] was 93 % of control and the T/C [16] was 106 % of control. The T/C [17] was 95 % of control.
With `CC(C)C(NC(=O)CNC(=O)CNC(=O)OCc1ccccc1)C(=O)OCc1ccccc1` (stereo not drawn) (Cbz-Gly-Gly-[ξV]-OBn) the T/C [12] was 95 % of control, the T/C [13] was 96 % of control and the T/C [14] was 96 % of control.
`CCCCCCCCCCCCN1CCSCC1` was tested, and the T/C (dose: 25.0 mg/kg/injection, schedule: Q04DX003 (ip), vehicle: saline with Tween-80) was 95 % of control and 105 % of control, the T/C (dose: 50.0 mg/kg/injection, schedule: Q04DX003 (ip), vehicle: saline with Tween-80) was 104 % of control and 90 % of control and the T/C [3] was 105 % of control and 117 % of control. The T/C (dose: 100.0 mg/kg/injection, schedule: Q04DX002 (ip), vehicle: saline with Tween-80) was 95 % of control and 113 % of control, the T/C [4] was 94 % of control and 117 % of control and the T/C (dose: 200.0 mg/kg/injection, schedule: Q04DX002 (ip), vehicle: saline with Tween-80) was 95 % of control and 113 % of control. For the same compound, the T/C [1] was 93 % of control and 104 % of control and 110 % of control, the T/C [5] was 97 % of control and 104 % of control and the T/C (dose: 400.0 mg/kg/injection, schedule: Q04DX002 (ip), vehicle: saline with Tween-80) was 97 % of control and 98 % of control. The T/C [2] was 108 % of control and 90 % of control.
In the case of `O=[N+]([O-])c1ccc(/C=C2\c3ccccc3-c3nc4ccccc4nc32)cc1`, the T/C (dose: 75.0 mg/kg/injection, schedule: Q01DX001 (ip), vehicle: saline) was 92 % of control and the T/C (dose: 300.0 mg/kg/injection, schedule: Q01DX001 (ip), vehicle: saline) was 91 % of control.
With `C=CCNC(=O)Oc1cccc(NC(=O)C(C)CCC)c1` (stereo not given) the T/C [19] was 101 % of control, the T/C [20] was 95 % of control and the T/C (dose: 400.0 mg/kg/injection, schedule: Q01DX009 (ip), vehicle: saline with Tween-80) was 108 % of control.
With `CCCCS(=O)(=O)N1CC(C)OC(C)C1` (stereo not given) the T/C [9] was 97 % of control, the T/C [10] was 108 % of control and the T/C [11] was 97 % of control.
In the case of `COc1ccc(/C=C2\N=C(c3ccccc3)OC2=O)c(Cl)c1OC`, the T/C [18] was 97 % of control, the T/C [15] was 97 % of control and the T/C [16] was 100 % of control. For the same compound, the T/C [17] was 94 % of control.
In the case of `COc1cc(C=O)ccc1OC(=O)Nc1ccc(Cl)cc1C(F)(F)F`, the T/C (dose: 50.0 mg/kg/injection, schedule: Q01DX009 (ip), vehicle: saline with Tween-80) was 89 % of control, the T/C [19] was 100 % of control and the T/C [20] was 96 % of control.
For `[N-]=[N+]=C1c2ccccc2-c2ccccc21`, the T/C (dose: 100.0 mg/kg/injection, schedule: Q01DX001 (ip), vehicle: Klucel (hydroxypropylcellulose) (HPC)) was 94 % of control, the T/C [12] was 104 % of control and the T/C (dose: 200.0 mg/kg/injection, schedule: Q01DX001 (ip), vehicle: Klucel (hydroxypropylcellulose) (HPC)) was 93 % of control. The T/C [13] was 90 % of control, the T/C (dose: 400.0 mg/kg/injection, schedule: Q01DX001 (ip), vehicle: Klucel (hydroxypropylcellulose) (HPC)) was 91 % of control and the T/C [14] was 101 % of control.
For `CCC(CC)(CCN(C)C)c1ccccc1`, the T/C (dose: 50.0 mg/kg/injection, schedule: Q01DX001 (ip), vehicle: carboxymethylcellulose (CMC)) was 98 % of control, the T/C (dose: 100.0 mg/kg/injection, schedule: Q01DX001 (ip), vehicle: carboxymethylcellulose (CMC)) was 98 % of control and the T/C (dose: 200.0 mg/kg/injection, schedule: Q01DX001 (ip), vehicle: carboxymethylcellulose (CMC)) was 104 % of control.
In the case of `O=S(NOCc1ccccc1)c1ccccc1` (stereo not given), the T/C [9] was 107 % of control, the T/C [10] was 107 % of control and the T/C [11] was 111 % of control.
With `O=C1OC(n2ccc3ccccc32)c2ccccc21` (stereo not given) the T/C [15] was 105 % of control, the T/C [6] was 89 % of control and the T/C [16] was 96 % of control. For the same compound, the T/C [7] was 92 % of control, the T/C [17] was 102 % of control and the T/C [8] was 89 % of control.
